Source: patent US7560435B2, “Therapeutic use of riboside of 5-aminoimidazole-4-carboxamide (acadesine)” (Advanced In Vitro Cell Technologies, S. A., priority 2002, dated 2009)

Tests used:
B-CLL cells = experiment: cells; assay type: cell-based, human
From the text: Forty-six patients with B-CLL, seven patients with SMZL, two patients with lymphoproliferative disorder without a specific diagnosis, and four healthy donors were studied. All patients were diagnosed according to standard clinical and laboratory criteria. Written informed consent was obtained from all patients. Mononuclear cells from peripheral blood samples were isolated by centrifugation on a Ficoll/Hypaque (Seromed, Berlin, Germany) gradient and cryopreserved in liquid nitrogen in the presence of 10% dimethyl sulfoxide (DMSO).
Lymphocytes were cultured immediately after thawing at a concentration of 2 to 5×10^6 cells/ml in RPMI 1640 culture medium (Biological Industries, Beit Haemek, Israel) supplemented with 10% heat-inactivated fetal calf serum (Gibco-BRL, Paisley, GB), 1% glutamine, and 1% penicillin-streptomycin at 37° C. in a humidified atmosphere containing 5% carbon dioxide.
Apoptosis was measured by annexin V binding. Exposure of phosphatidylserine was quantified by surface annexin V staining as previously described (cf. B. Bellosillo et al., Blood 1998, vol. 92, pp. 1406-1414). To analyze apoptosis in T cells from the samples, 500,000 cells were incubated for 24 h with the indicated factors. Cells were then washed in phosphate-buffered saline (PBS) solution, and incubated in 50 μl of annexin binding buffer with APC-conjugated anti-CD3 and PE-conjugated anti-CD19 for 10 minutes in the dark. Cells were then diluted with annexin binding buffer to a volume of 250 μl and incubated with 0.5 μl of annexin V-FITC for 15 minutes in the dark. 250 μl of annexin binding buffer and 5 μl of PI were added just before flow cytometric analysis. Data were analyzed using Cell Quest software.
The effect of several doses of acadesine, ranging from 50 μM to 1 mM, on the viability of B-CLL cells, was studied. […] Cells from 5 patients were incubated for 24 h with various doses of acadesine as indicated.
Cells from 46 patients were incubated for 24 h with (+) or without (−) 0.5 mM acadesine. Viability (V) was measured by analysis of phosphatidylserine exposure and PI uptake, and it is expressed as the percentage of non apoptotic cells. All the patients were sensitive to acadesine and the viability decreased from 67±11% to 26±14% (n=46).

[1] = test system: CD3+/CD19- T cells from B-CLL patients; experiment: Apoptosis/viability by flow cytometry, T cells from B-CLL samples; assay type: cell-based, human; details: 24 h
From the text: Forty-six patients with B-CLL, seven patients with SMZL, two patients with lymphoproliferative disorder without a specific diagnosis, and four healthy donors were studied. All patients were diagnosed according to standard clinical and laboratory criteria. Written informed consent was obtained from all patients. Mononuclear cells from peripheral blood samples were isolated by centrifugation on a Ficoll/Hypaque (Seromed, Berlin, Germany) gradient and cryopreserved in liquid nitrogen in the presence of 10% dimethyl sulfoxide (DMSO). […] Apoptosis was measured by annexin V binding. Exposure of phosphatidylserine was quantified by surface annexin V staining as previously described (cf. B. Bellosillo et al., Blood 1998, vol. 92, pp. 1406-1414). […] Data were analyzed using Cell Quest software. To analyze whether the induction of apoptosis in B-CLL patients was selective to B cells, we counted the apoptotic T cells (CD3 positive cells) in four B-CLL blood samples treated for 24 h with several doses of acadesine. […] Viability (V) was measured as non apoptotic CD3+/CD19− T cells (empty symbols) or CD3−/CD19+B cells (full symbols), and it is expressed as the percentage of the viability of non treated cells. […] Viability is expressed as the mean value ± standard deviation.

[2] = test system: B cells from healthy donors; experiment: Apoptosis/viability by flow cytometry, B cells from healthy donors; assay type: cell-based, human; details: 0.5 mM, 24 h, 4 healthy donors
From the text: (§1) Forty-six patients with B-CLL, seven patients with SMZL, two patients with lymphoproliferative disorder without a specific diagnosis, and four healthy donors were studied. All patients were diagnosed according to standard clinical and laboratory criteria. Written informed consent was obtained from all patients. Mononuclear cells from peripheral blood samples were isolated by centrifugation on a Ficoll/Hypaque (Seromed, Berlin, Germany) gradient and cryopreserved in liquid nitrogen in the presence of 10% dimethyl sulfoxide (DMSO). Lymphocytes were cultured immediately after thawing at a concentration of 2 to 5×10^6 cells/ml in RPMI 1640 culture medium (Biological Industries, Beit Haemek, Israel) supplemented with 10% heat-inactivated fetal calf serum (Gibco-BRL, Paisley, GB), 1% glutamine, and 1% penicillin-streptomycin at 37° C. in a humidified atmosphere containing 5% carbon dioxide. Apoptosis was measured by annexin V binding. Exposure of phosphatidylserine was quantified by surface annexin V staining as previously described (cf. B. Bellosillo et al., Blood 1998, vol. 92, pp. 1406-1414). To analyze apoptosis in T cells from the samples, 500,000 cells were incubated for 24 h with the indicated factors. […] Data were analyzed using Cell Quest software. […] Viability is expressed as the mean value ± standard deviation.

[3] = test system: B cells from patients with SMZL; experiment: Apoptosis/viability by flow cytometry, B cells from SMZL patients; assay type: cell-based, human; details: 0.5 mM and 1.0 mM, 24 h, seven SMZL patients
From the text: as §1, with “1406-1414).” for “1406-1414). To analyze apoptosis in T cells from the samples, 500,000 cells were incubated for 24 h with the indicated factors.”, “Viability (V) was measured by analysis of phosphatidylserine exposure and PI uptake, and it” for “Viability”, “percentage of non apoptotic cells. […]” for “mean value ± standard deviation.”

[4] = test system: B cells from patients with lymphoproliferative disorder without a specific diagnosis; experiment: Apoptosis/viability by flow cytometry, B cells, lymphoproliferative disorder without a specific diagnosis; assay type: cell-based, human; details: 0.5 mM and 1.0 mM, 24 h, two patients
From the text: as §1, with “1406-1414).” for “1406-1414). To analyze apoptosis in T cells from the samples, 500,000 cells were incubated for 24 h with the indicated factors.”, “Viability (V) was measured by analysis of phosphatidylserine exposure and PI uptake, and it” for “Viability”, “percentage of non apoptotic cells. […]” for “mean value ± standard deviation.”

Jurkat (T cell line) = experiment: Effects of acadesine in cell lines: Jurkat; assay type: cell-based
From the text: (§2) Another important advantage of the invention is the selectivity and the concentration of acadesine necessary to induce apoptosis. […] This means that the possible side effects coming from damaging other cellular types are minor when using acadesine as a therapeutical agent.

JVM-2 = experiment: Effects of acadesine in cell lines: JVM-2; assay type: cell-based
From the text: as §2

[5] = test system: MCF-7 (breast cancer line); experiment: Effects of acadesine in cell lines: MCF-7; assay type: cell-based
From the text: as §2

293 = experiment: Effects of acadesine in cell lines: 293; assay type: cell-based
From the text: as §2

[6] = test system: Hela (cervix cancer line); experiment: Effects of acadesine in cell lines: Hela; assay type: cell-based
From the text: as §2

HUH7 (liver cancer line) = experiment: Effects of acadesine in cell lines: HUH7; assay type: cell-based
From the text: as §2

[7] = healthy individuals, given intravenously; cited from earlier work

NC(=O)c1ncn([C@@H]2O[C@H](CO)[C@@H](O)[C@H]2O)c1N [acadesine, 5-amino-1-β-D-ribofuranosyl-1H-imidazole-4-carboxamide]
Viability of B cells (B-CLL cells; 0.5 mM, 24 h, 18 B-CLL patients): markedly reduced
Induction of apoptosis (B-CLL cells; 24 h incubation, doses 50 μM to 1 mM, cells from 5 patients): induced apoptosis in a dose-dependent manner
viability at 500 µM (B-CLL cells; Homo sapiens, B-CLL, 24 h, read-out: Viability (percentage of non apoptotic cells)): 26 ± 14%
EC50 (B-CLL cells; Homo sapiens, B-CLL, 24 h incubation, 50 μM to 1 mM, cells from 5 patients (n=5), read-out: EC50 (viability of B-CLL cells)): 380 ± 60 µM
Acadesine-induced apoptosis in T cells ([1]; doses up to 1 mM, four B-CLL blood samples): resistant to acadesine-induced apoptosis
Viability of T cells ([1]; higher concentrations 2-4 mM): only slightly affected the viability
Viability of B cells [2]: markedly reduced
Viability of B cells [3]: markedly reduced
Viability of B cells [4]: markedly reduced
Sensitivity to acadesine relative to B-CLL cells (Jurkat (T cell line)): less sensitive to acadesine than B-CLL cells
Sensitivity to acadesine relative to B-CLL cells (JVM-2): less sensitive to acadesine than B-CLL cells
Sensitivity to acadesine relative to B-CLL cells [5]: less sensitive to acadesine than B-CLL cells
Sensitivity to acadesine relative to B-CLL cells 293: less sensitive to acadesine than B-CLL cells
Sensitivity to acadesine relative to B-CLL cells [6]: less sensitive to acadesine than B-CLL cells
Sensitivity to acadesine relative to B-CLL cells (HUH7 (liver cancer line)): less sensitive to acadesine than B-CLL cells
Concentrations in plasma [7]: 200 µM
Tolerability [7]: well tolerated
